From BigSolDB 2.1

CC1(C)S[C@@H]2[C@H](NC(=O)[C@H](NC(=O)N3CCNC3=O)c3ccccc3)C(=O)N2[C@H]1C(=O)O
solubility (mole fraction)
Conditions	278.15 K	283.15 K	288.15 K	293.15 K	298.15 K	303.15 K	308.15 K	313.15 K	318.15 K	323.15 K
in THF	0.00106	0.00115	0.00131	0.00149	0.00164	0.00178	0.00199	0.00218	0.00243	0.00276
in acetone	0.000492	0.000572	0.000667	0.000823	0.000919	0.00112	0.00133	0.00155	0.00192	0.00223
in acetonitrile	0.000491	0.000551	0.000643	0.000757	0.000836	0.000934	0.00108	0.00122	0.00137	0.00156
in ethanol	0.000687	0.000805	0.000954	0.00113	0.00131	0.00165	0.00197	0.00245	0.00296	0.00368
in ethyl acetate	0.000219	0.000243	0.000287	0.000311	0.000353	0.000411	0.000462	0.000528	0.000613	0.000688
in isopropanol	9.02e-05	0.000111	0.000132	0.000162	0.000196	0.00024	0.000289	0.000376	0.000456	0.000557
in isopropyl acetate	6.88e-05	7.89e-05	9.25e-05	0.000102	0.000116	0.00013	0.000148	0.00017	0.000192	0.000219
in methanol	0.000281	0.00033	0.000403	0.000478	0.000602	0.000728	0.000948	0.00115	0.00142	0.00178
in methyl acetate	0.00027	0.000313	0.000372	0.000463	0.000565	0.000651	0.000758	0.000921	0.00107	0.0013
